Test results: patent US20120035187A1 (priority 2009, published 2012)

What was measured:
[1] = test system: hamsters with cerebellar ataxia; assay: Rotarod test in hamsters with cerebellar ataxia; assay type: in vivo, hamster
Text: Since NK-4 was confirmed to have a neurodegenerative inhibitory action in Experiment 1, hamsters with cerebellar ataxia (cerebellar ataxia is called “cerebellar A” and hamsters with cerebellar ataxia are called “hamsters with cerebellar A”, hereinafter) as a suitable model for human neurodegenerative diseases (e.g., spinal cerebellar degeneration) were subjected to examine the influence of NK-4 administration on their behaviors and brain tissues. Twenty-five hamsters with natural mutation (Nna1 inhibition), which are known to lose Purkinje's cells after three-weeks of age and then induce a spontaneous onset of kinetic motor ataxia after seven-weeks of age (see Akita K. et al., “J. Neurogenetics”, Vol. 21, pp. 19-29, 2007), had been fed at Hayashibara Biochemical Laboratories., Inc., Okayama, Japan, were randomly allocated to the test groups 1 to 5, five heads in each group, as shown in Table 2. Prior to the onset of cerebellar A (at three-weeks of age), PBS was started to administer to the hamsters in the test group 1 at a dose of 10 ml/kg/day. Prior to the onset of cerebellar A (at three-weeks of age), NK-4 was started to be administered to the hamsters in the test groups 2 to 4 at a daily dose of 20 μg/kg, 100 μg/kg or 500 μg/kg. “IGF-1, human, a product name of insulin-like growth factor, commercialized by Assaypro LLC, MO, USA. These administered ingredients were intraperitoneally administered daily to hamsters once a day up to 10-weeks of age. The degree of symptom of cerebellar A and the improvement effect on the symptom by NK-4 were evaluated with an index of improvement in motor coordination of hamsters by conducting once a week the later described rotarod test and the slant tolerance test. At the age of 10-weeks, the hamsters were subjected to counting the falling down frequency and extracted their brains, which were then histologically evaluated. In parallel, the concentration of glutamic acid in the bloods and cerebrospinal fluids (CSF) of the hamsters was assayed. As a test group 6, five normal hamsters, with the same age as the hamsters with cerebellar A used in the test groups 1 to 5, were provided and tested similarly as the hamsters with cerebellar A in such a manner of intraperitoneally administering PBS to them at a dose of 10 ml/kg/day once a day up to 10-weeks of age.
As an index for coordinated movement, it was used a duration time of hamster's movement to staying on a rotarod by locomotion in synchronization with the turn of the rotarod; placing a hamster on an apparatus with a rotarod (having a diameter of 60 mm, prepared by Hayashibara Biochemical Laboratories, Inc., Okayama, Japan), turning at a constant rate of six rpm, and measuring the time until the hamster falls down from the rotarod (see Fernandez et al., “Proc. Natl. Acad. Sci. USA”, Vol. 95, pp. 1253-1258, 1998). The test was repeated six times for each hamster, where five-times of tests starting from the initiation of the test were made as a preliminary examination, and the time until each hamster fell down from the rotarod (called “falling time”, hereinafter) was measured, followed by averaging the falling times for each group consisting of five heads. The falling time was measured until 180 seconds. Based on the results, the relationship between the age and the falling time for each hamster with cerebellar A (test group 1) administered with PBS was graphed. […]
Similarly as in Experiment 2, 130 hamsters with cerebellar ataxia, born within the same week and 3-weeks of age, were randomly divided into 13 groups, consisting of 10 hamsters, respectively. […]

[2] = test system: ICR mice administered with amyloid β fragment; assay: Degeneration or defect of hippocampal pyramidal cells, mouse administered with amyloid β fragment, agents of Example 1; assay type: in vivo; conditions: 4-point grade score none (0) to severe (3), average of 10 mice; agent of Example 1, 0.3 ml/head intraperitoneally once a day up to the 8th day
Protocol: One hundred and thirty ICR mice (commercialized by Charles Liver Laboratories Japan Inc., Kanagawa, Japan) were randomly divided into 13 groups, consisting of 10 mice in each group. Amyloid β fragment, represented by an amino acid sequence of SEQ ID NO: 1, used in Experiment 3 was aged at 37° C. for four days, and administered to the lateral ventricle of each mouse in an amount of 9 nmol/6 μl/mouse (the administration method is referred to “Brain Research”, Vol. 706, pp. 181-193 (1996)). […] The mice (10 heads) in the remaining one group were intraperitoneally administered with a sterilized 10% maltose solution (pyrogen-free) once a day up to the 8th day in an amount of 0.3 ml/mouse (control). On the 8th day after the administration, novel object recognition test (see, Japanese Patent Kokai No. 2008-193941) was performed and the average discrimination index (the ratio of prolonged seeking time for novel object to the total seeking time) as a cognitive function index were shown in Table 26. On the 9th day after the administration, the brain of the mice was anatomically isolated, prepared into tissue samples in conventional manner. Depositions of aggregation of amyloid fragment were observed by staining with Congo red or thioflavin T, and degeneration or defect of hippocampal pyramidal cells concerned with cognitive function. The degeneration or the defect of hippocampal pyramidal cells was evaluated by 4-point grade score, by regarding the condition of the control without administration of amyloid β fragment as “none (O)”, “slight (1)”, “moderate (2)”, and “sever (3)”, and the average scores of 10 mice are shown in Table 20.

PC12-HS cells [3] = assay: Evaluation A: neurocyte (cell)-growth-promoting action, ALAMAR BLUE; assay type: cell-based, rat
PC12-HS cells [4] = assay: Evaluation B: neurite-outgrowth action in presence of NGF; assay type: cell-based, rat

CCCCN1C=C/C(=C/C=C(/C=C/c2cc[n+](CCCC)c3ccccc23)c2cc[n+](CCCC)c3ccccc23)c2ccccc21 [NK-26] was tested, and the “improving effect on motor coordination (in words)” value ([1]; cerebellar ataxia hamsters, agents of Example 1 compared among pentamethine cyanine dye compounds) was “particularly high improving effect on motor coordination”, the “Time of falling from rotarod” value ([1]; hamster with cerebellar ataxia, agent of Example 1, 0.5 ml/hamster intraperitoneally once a day for 56 days) was 90.0 ± 7.1 s and the “Degeneration/defluxion of hippocampal pyramidal cell” value [2] was 1.1. For the same compound, the “Action of enhancing cell growth (%)” value (PC12-HS cells [3]; compound concentration 25 ng/ml) was 275 ± 19%, the “Action of enhancing cell growth (%)” value (PC12-HS cells [3]; compound concentration 50 ng/ml) was 357 ± 35% and the “Action of enhancing cell growth (%)” value (PC12-HS cells [3]; compound concentration 100 ng/ml) was 210 ± 12%. For the same compound, the “Action of enhancing cell growth (%)” value (PC12-HS cells [3]; compound concentration 200 ng/ml) was 210 ± 12%, the “Action on neurite outgrowth (%)” value (PC12-HS cells [4]; compound concentration 80 ng/ml) was 72 ± 4% and the “Action on neurite outgrowth (%)” value (PC12-HS cells [4]; compound concentration 400 ng/ml) was 71 ± 7%. The “Action on neurite outgrowth (%)” value (PC12-HS cells [4]; compound concentration 2000 ng/ml) was 25 ± 7% and the “Action on neurite outgrowth (%)” value (PC12-HS cells [4]; compound concentration 10000 ng/ml) was 10< %.
